This is an account of results in patent US9701670B2, “Pyrazolyl-ureas as kinase inhibitors” (RESPIVERT LIMITED, priority 2013, dated 2017).

One data set has as its target GSK 3α (Homo sapiens (Human), UniProt P49840). The data set can be described thus: GSK 3α enzyme inhibition (FRET, Z-LYTE), Method 2. It is filed as biochemical. As to conditions: Method 2, different laboratory (Table 4a2); read-out: IC50 Values for Enzyme Inhibition GSK3α. How it is done:
(§1) The enzyme inhibitory activities of compounds disclosed herein are determined by FRET using synthetic peptides labelled with both donor and acceptor fluorophores (Z-LYTE, Invitrogen Ltd., Paisley, UK).
The inhibitory activities of compounds of the invention against the GSK 3α enzyme isoform (Invitrogen), are evaluated by determining the level of activation/phosphorylation of the target peptide. The GSK3-α protein (500 ng/mL, 2.5 μL) is mixed with the test compound (2.5 μL at either 4 μg/mL, 0.4 μg/mL, 0.04 μg/mL, or 0.004 μg/mL) for 2 hr at RT. The FRET peptide (8 μM, 2.5 μL), which is a phosphorylation target for GSK3α, and ATP (40 μM, 2.5 μL) are then added to the enzyme/compound mixture and the resulting mixture incubated for 1 hr. Development reagent (protease, 5 μL) is added for 1 hr prior to detection in a fluorescence microplate reader (Varioskan® Flash, ThermoFisher Scientific).
(§2) In all cases, the site-specific protease cleaves non-phosphorylated peptide only and eliminates the FRET signal. Phosphorylation levels of each reaction are calculated using the ratio of coumarin emission (donor) over fluorescein emission (acceptor), for which high ratios indicate high phosphorylation and low ratios indicate low phosphorylation levels.

Data set [1] has as its system β-catenin in d-U937 cells. Nature of the data set: (m) Accumulation of β catenin in d-U937 cells. In kind it is cell-based, human. The protocol:
U937 cells, a human monocytic cell line, are differentiated into macrophage-type cells by incubation with PMA; (100 ng/mL) for between 48 to 72 hr. The cells are then incubated with either final concentrations of test compound or vehicle for 18 hr. The induction of β-catenin by the test compounds is stopped by replacing the media with 4% formaldehyde solution. Endogenous peroxide activity is neutralised by incubating with quenching buffer (100 μL, 0.1% sodium azide, 1% H2O2 in PBS with 0.05% Tween-20) for 20 min. The cells are washed with washing buffer (200 μL; PBS containing 0.05% Tween-20) and incubated with blocking solution (200 μL; 5% milk in PBS) for 1 hr, re-washed with washing buffer (200 μL) and then incubated overnight with anti-β-catenin antibody solution (50 μL) in 1% BSA/PBS (BD, Oxford, UK).
After washing with washing buffer (3×200 μL; PBS containing 0.05% Tween-20), cells are incubated with an HRP-conjugated secondary antibody solution (100 μL) in 1% BSA/PBS (Dako, Cambridge, UK) and the resultant signal is determined colourimetrically (OD: 450 nm with a reference wavelength of 655 nm) using TMB substrate (50 μL; R&D Systems, Abingdon, UK). This reaction is stopped by addition of 1N H2SO4 solution (50 μL). Cells are then washed with washing buffer and 2% crystal violet solution (50 μL) is applied for 30 min. After washing with washing buffer (3×200 μL), 1% SDS (100 μL) is added to each well and the plates are shaken lightly for 1 hr prior to measuring the absorbance at 595 nm (Varioskan® Flash, Thermo-Fisher Scientific).
The measured OD450-655 readings are corrected for cell number by dividing the OD450-655 by the OD595 readings. […] A signal less than 0.15 (15%) of that observed for the standard control is designated as “-ve”.

For data set [2], the target named is T1, p38 MAPKα isoform (MAPK14) (Homo sapiens (Human), UniProt Q16539). Nature of the data set: p38 MAPKα enzyme inhibition (FRET, Z-LYTE), Method 2. It is filed as biochemical. As to conditions: Method 2, different laboratory (Table 4a2). The protocol:
as §1
The inhibitory activities of test compounds against the p38 MAPKα isoform (MAPK14: Invitrogen), are evaluated indirectly by determining the level of activation/phosphorylation of the down-stream molecule, MAPKAP-K2. The p38 MAPKα protein (80 ng/mL, 2.5 μL) is mixed with the test compound (2.5 μL of either 4 μg/mL, 0.4 μg/mL, 0.04 μg/mL or 0.004 μg/mL) for 2 hr at RT. […] The mixture is incubated for 1 hr at RT. Development reagent (protease, 5 μL) is added for 1 hr prior to detection in a fluorescence microplate reader (Varioskan® Flash, ThermoFisher Scientific).
as §2

For data set [3], the system named is Differentiated U937 cells. Nature of the data set: (l) Cell viability: MTT assay. In kind it is cell-based, human. As to conditions: 1 μg/mL. The method in brief: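 Differentiated U937 cells were exposed to compound at 1 or 10 μg/mL either 4 h in 5% FCS RPMI1640 or 24 h in 10% FCS RPMI1640, then given MTT for 1 h, DMSO-solubilised and read at 550 nm. Percent viability loss versus 0.5% DMSO vehicle; apparent gains appear negative.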
In general terms: Formazan colour is commonly taken as a measure of viable cells.

The target of data set [4] is T1, p38 MAPKα isoform (MAPK14). Nature of the data set: p38 MAPKα enzyme inhibition (FRET, Z-LYTE), Method 1. In kind it is biochemical. As to conditions: Method 1 (Table 4a1).
The subject of a further data set is Balb/c mice. Nature of the data set: (A) LPS-induced neutrophil accumulation in mice. It is filed as in vivo, mouse. As to conditions: mice; for Neutrophil numbers in BAL: N = 8. The protocol: […] At T=0, mice are placed into an exposure chamber and exposed to LPS (7.0 mL, 0.5 mg/mL solution in PBS) for 30 min). After a further 8 hr the animals are anesthetized, their tracheas cannulated and BALF extracted by infusing and then withdrawing from their lungs 1.0 mL of PBS via the tracheal catheter. Total and differential white cell counts in the BALF samples are measured using a Neubaur haemocytometer. Cytospin smears of the BALF samples are prepared by centrifugation at 200 rpm for 5 min at RT and stained using a DiffQuik stain system (Dade Behring). Cells are counted using oil immersion microscopy. Data for neutrophil numbers in BAL are shown as mean±S.E.M. (standard error of the mean). The percentage inhibition of neutrophil accumulation is calculated for each treatment relative to vehicle treatment.

For another data set, the system named is mice. The data set can be described thus: Mouse cigarette smoke model (macrophage and neutrophil accumulation in BALF). In kind it is in vivo. As to conditions: tobacco smoke, mice; for Cell numbers in BAL Macrophage / Cell numbers in BAL Neutrophil: mean ± SEM, N = 6. The source says:
The result of treatment with compound Example (8) on macrophage and neutrophil accumulation in BALF in the mouse cigarette smoke model was investigated (Table 5).

Broadly, the IC50 is the concentration that gives 50% inhibition.

T1 sequence (Q16539 whole entry, canonical isoform): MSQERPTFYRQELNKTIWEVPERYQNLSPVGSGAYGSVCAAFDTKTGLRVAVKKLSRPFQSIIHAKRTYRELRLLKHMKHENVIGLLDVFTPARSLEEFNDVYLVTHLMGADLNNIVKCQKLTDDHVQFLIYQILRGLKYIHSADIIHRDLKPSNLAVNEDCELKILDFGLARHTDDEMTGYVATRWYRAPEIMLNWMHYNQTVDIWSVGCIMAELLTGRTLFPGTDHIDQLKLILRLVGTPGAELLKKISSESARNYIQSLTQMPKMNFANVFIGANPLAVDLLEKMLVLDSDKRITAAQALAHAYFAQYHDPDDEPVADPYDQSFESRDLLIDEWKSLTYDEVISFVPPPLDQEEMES
Chain of GSK 3α (P49840 whole entry): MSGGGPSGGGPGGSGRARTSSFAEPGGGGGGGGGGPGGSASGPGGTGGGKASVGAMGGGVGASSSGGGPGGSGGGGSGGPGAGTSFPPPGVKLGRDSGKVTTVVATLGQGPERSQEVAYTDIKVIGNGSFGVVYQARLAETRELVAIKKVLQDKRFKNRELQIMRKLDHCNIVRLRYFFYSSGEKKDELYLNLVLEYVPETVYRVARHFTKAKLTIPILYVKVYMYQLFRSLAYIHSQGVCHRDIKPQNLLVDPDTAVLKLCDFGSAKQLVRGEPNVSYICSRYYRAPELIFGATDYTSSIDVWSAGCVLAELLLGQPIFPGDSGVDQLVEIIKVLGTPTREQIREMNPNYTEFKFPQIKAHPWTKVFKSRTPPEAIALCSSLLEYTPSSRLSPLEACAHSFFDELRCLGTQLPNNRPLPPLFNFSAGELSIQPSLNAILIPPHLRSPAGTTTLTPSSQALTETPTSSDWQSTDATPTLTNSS

In the case of `C#Cc1cc(Nc2nccc(Oc3ccc(NC(=O)Nc4cc(C(C)(C)C)nn4-c4ccc(OC)cc4)c4ccccc34)n2)cc(C(=O)NCCOC)c1` [Example 84, 3-((4-((4-(3-(3-(tert-Butyl)-1-(4-methoxyphenyl)-1H-pyrazol-5-yl)ureido)-naphthalen-1-yl)oxy)pyrimidin-2-yl)amino)-5-ethynyl-N-(2-methoxyethyl)benzamide], the half-inhibitory concentration (IC50) on GSK 3α is 13.8 µM; in data set [2], 105 nM. The results for the “% β-catenin induction” value in data set [1] (1 μg/mL test compound), in data set [1] (5 μg/mL test compound) and in data set [1] (10 μg/mL test compound) were 3%, 3% and 5%, respectively.
As for `COc1cc(Nc2nccc(Oc3ccc(NC(=O)Nc4cc(C(C)C)nn4-c4ccc(C)cc4)c4ccccc34)n2)cc(C(=O)NCCN2CCOCC2)c1` [Example 8, 3-((4-((4-(3-(3-Isopropyl-1-(p-tolyl)-1H-pyrazol-5-yl)ureido)naphthalen-1-yl)oxy)pyrimidin-2-yl)amino)-5-methoxy-N-(2-morpholinoethyl)benzamide], the values for the concentration for half-maximal inhibition (IC50) (on GSK 3α; in data set [4]; in data set [2]) were 13.2 µM, 2 nM and 44 nM, respectively. For the same molecule, in data set [3] (4 h), the “Cell viability at time point in d-U937 cells 4 h” value was “−ve (−ve and +ve indicate that the value is below and above respectively, the no significant effect threshold, defined as 30% inhibition at 1 μg/mL at the time point indicated.)”. In data set [3] (24 h), the “Cell viability at time point in d-U937 cells 24 h” value is “−ve (−ve and +ve indicate that the value is below and above respectively, the no significant effect threshold, defined as 30% inhibition at 1 μg/mL at the time point indicated.)”. Also, the “% inhibition of neutrophil numbers in BAL” value with Balb/c mice (0.05 mg/mL, pre-dose time 2 hr) is 40%; in the data set with Balb/c mice (0.2 mg/mL, pre-dose time 2 hr) it was 59%; in the data set on Balb/c mice (0.2 mg/mL, pre-dose time 12 hr) it was 43%; in the data set with Balb/c mice (0.2 mg/mL, pre-dose time 18 h), 9%; with Balb/c mice (1.0 mg/mL, pre-dose time 2 hr), 77%; with Balb/c mice (test substance at 0.2 mg/mL, dosed 8 hr pre-LPS challenge), 57%. The “Neutrophil numbers in BAL” value in the data set on Balb/c mice (0.05 mg/mL, pre-dose time 2 hr, mean +/− SEM) was 9.6 ± 2.0 ×10^5/mL; with Balb/c mice (0.2 mg/mL, pre-dose time 2 hr, mean +/− SEM), 6.6 ± 1.4 ×10^5/mL; in the data set with Balb/c mice (0.2 mg/mL, pre-dose time 12 hr, mean +/− SEM) it was 9.1 ± 1.7 ×10^5/mL; with Balb/c mice (0.2 mg/mL, pre-dose time 18 h, mean +/− SEM) it was 14.6 ± 2.5 ×10^5/mL; with Balb/c mice (1.0 mg/mL, pre-dose time 2 hr, mean +/− SEM), 3.7 ± 0.61 ×10^5/mL; with Balb/c mice (test substance at 0.2 mg/mL, dosed 8 hr pre-LPS challenge, +/−SEM), 6.1 ± 1.2 ×10^5/mL. Also, the “% inhibition Macrophage in BAL” value in the data set with mice (1.6 μg/mL) came out at 29%; in the data set with mice (8 μg/mL), 50%; in the data set on mice (40 μg/mL), 67%; with mice (200 μg/mL), 83%. The “% inhibition Neutrophil in BAL” value in the data set on mice (1.6 μg/mL) was 28%; in the data set with mice (8 μg/mL) it was 49%; in the data set with mice (40 μg/mL) it was 61%; in the data set with mice (200 μg/mL) it was 77%. Moreover, the “Cell numbers in BAL Macrophage” value with mice (1.6 μg/mL) is on record as 14.0 ± 0.50 ×10^4/mL; with mice (8 μg/mL), 10.9 ± 0.42 ×10^4/mL; with mice (40 μg/mL), 8.3 ± 0.38 ×10^4/mL; in the data set on mice (200 μg/mL), 5.9 ± 0.31 ×10^4/mL. For the same molecule, the “Cell numbers in BAL Neutrophil” value is 13.6 ± 0.51 ×10^4/mL in the data set on mice (1.6 μg/mL), 10.2 ± 0.33 ×10^4/mL with mice (8 μg/mL), 8.2 ± 0.58 ×10^4/mL with mice (40 μg/mL) and 5.6 ± 0.39 ×10^4/mL in the data set with mice (200 μg/mL).
